Reference: patent US20090324489A1 (priority 2005, published 2009)
Where two headings read alike, the source gives them in different places.

Tests used:
physchem = format: physicochemical; settings: for half-life / half-life at 1.5 μM: buffer
Protocol: The stability of compounds of the invention was obtained by the following method. […] The solutions were incubated at 37° C.
Stability data was fit to equation 1, which illustrates our treatment of the data for 2a ([…]) as shown in FIG. 2 with first order decay constants (kFOD) given in Table 1.

A549 cells = experiment: Anti-proliferative SRB assay, A549 cells; format: cell-based
Protocol: A549 cells were grown in RPMI-1640 supplemented with 10% FBS, 100 units/mL of penicillin, 100 μg/mL of streptomycin, and 2 mM L-glutamine. All cells were grown in a humidified atmosphere at 37° C. and 5% CO2. Growth inhibition was evaluated by the SRB assay^22. Cells were seeded in 96-well plates at 5000 cells per well in 100 μL of media and incubated at 37° C. for 24 hours. Cells were then treated with 0-100 μM of compounds at 37° C. for 48 hours. Cells were fixed with 50 μL cold 50% TCA, incubated at 4° C. for 1 hour, and washed 5 times with tap water. The 96-well plates were allowed to air dry and 100 μL 0.4% sulforhodamine B (SRB) in 1% acetic acid was added to each well. After 10 minutes, the unbound SRB was washed away with 1% acetic acid and the plates were dried. Protein-bound dye was solubilized by addition of 200 μL 10 mM Tris buffer and subsequent shaking at RT for 10 minutes. The absorbance of each well was measured at 490 nm by a plate reader. Percent cell survival was calculated for each concentration by the ratio of the measured absorbance to the absorbance of the untreated cells. Curve fitting was performed using Prism 4.0a software. IC50 is the 50% inhibition of cell mass without subtraction of the resistant cell population.

HeLa cells = experiment: Anti-proliferative assay, HeLa cells; format: cell-based
[1] = cited from earlier work
[2] = Formation of wortmannin from WmC20 conjugates monitored by HPLC; settings: PBS pH 6.8, 37° C.
Protocol: The solutions were incubated in water bath at 37° C. and were analyzed at different time points with HPLC by injecting the solution (10 μL) together with 1 μL internal standard solution (containing 1 μg methyl 4-hydroxybezoate). The initial time point (0 hr) was taken before putting the tube in the water bath. HPLC gradients were adjusted to produce baseline separations. Before the injection, the samples were vortexed briefly and then spun down. Data using this method appear in FIG. 6.
Compounds (1.8 mg) and 4b (1.3 mg) (examples were weighted into the 1.5 mL tubes and dissolved in PBS buffer (pH 6.8, 400 μL). The solutions were incubated at 37° C. At different time point 20 μL solution was mixed with 1 μL internal standard solution in DMSO (containing 1 μg methyl 4-hydroxybenzoate) and analyzed by HPLC. The initial time point (0 hr) was taken before putting the tube in the water bath. Before the injection, the samples were vortexed briefly and then spun down.
The following HPLC methods were employed. HPLC (Varian Prostar 210 with a variable wavelength PDA 330 detector) employed reverse phase C18 columns (VYDAC, Cat.#: 218TP 1022 for synthesis; Varian, Cat. #: R0086200C5 for analysis) with water (Millipore, containing 0.1% trifloroacetic acid,) (buffer A) and acetonitrile (containing 20% buffer A) (buffer B) as elution buffer. System 1: buffer A/buffer B (80:20) isocratic for 5 minutes, linear gradient to buffer A/buffer B (20:80) over 40 minutes, then the gradient back to 80:20 in 5 minutes and isocratic for 5 minutes, flow: 4.9 ml/min, λmax: 418 nm (used for purification of 2a); System 2: buffer A/buffer B (80:20) isocratic for 5 minutes, linear gradient to buffer A (buffer B (20:80) over 25 minutes and then isocratic for 5 minutes, then the gradient back to 80:20 in 5 minutes and isocratic for 5 minutes, flow: 6.0 mi/min, λmax: 408 nm (used for purification of 2b); System 3: buffer A/buffer B (70:30) linear gradient to buffer A/buffer B (20:80) over 15 minutes, then gradient back to 70:30 in 3 minutes and isocratic for another 5 minutes, flow: 1.0 ml/min, λmax: 258 nm (System 4: buffer A/buffer B (99:1) linear gradient to buffer A/buffer B (40:60) over 46 minutes, then gradient back to […] in 5 minutes and isocratic for another 5 minutes, flow: 1.0 ml/min, λmax: 250 nm).

PI3K = experiment: Inhibition of PI3K enzyme activity (32P ATP lipid phosphorylation, TLC); format: biochemical; settings: compounds incubated 3 hours at 37° C. in PBS pH 6.8, then 30 minute PI3K incubation; read-out: Bioassay: PI3K IC50
Protocol: We incubated compounds for three hours at 37° C. in PBS, pH 6.8, followed a 30 minute incubation for PI3K activity using the assay system previously described which involves lipid phosphorylation by ^32P labeled ATP and thin layer chromatography, (see Yuan et al., Bioconjug. Chem. 16:669 (2005)).

[3] = Homo sapiens, A549, 48 hours treatment
[4] = RPM tissue culture medium, data from Holleran et al.

| Molecule | half-life (physchem; pH 6.8, Half Life) | IC50 (A549 cells; [3]) | IC50 (HeLa cells; Homo sapiens, HeLa) | K1 (wortmannin generation, fit to Equation 2) [2] | K2 (wortmannin degradation, fit to Equation 2) [2] | IC50 (PI3K) | also measured |
| --- | --- | --- | --- | --- | --- | --- | --- |
| COCC1OC(=O)C(=CN(C)CCCCCC(=O)O)C2=C(O)C(=O)C3=C(C(OC(C)=O)CC4(C)C(=O)CCC34)C21C (centres unmarked) [Example 1, wortmannin C20-N(Me)-hexanoic acid] | 8.7 h | 3.11 ± 0.17 µM | 10.9 ± 0.2 µM |  |  |  | half-life at 1.5 μM (physchem; pH 6.8, Half Life): 10.7 h |
| COCC1OC(=O)C(=CNCCCCCC(=O)O)C2=C(O)C(=O)C3=C(C(OC(C)=O)CC4(C)C(=O)CCC34)C21C (centres unmarked) [Example 2, wortmannin C20-NH-hexanoic acid] | 131 h | 45.8 ± 0.3 µM | 63.8 ± 0.6 µM |  |  |  | half-life at 1.5 μM (physchem; pH 6.8, Half Life): 223 h |
| COC[C@H]1OC(=O)c2coc3c2[C@@]1(C)C1=C(C3=O)[C@@H]2CCC(=O)[C@@]2(C)C[C@H]1OC(C)=O [wortmannin] | 57.8 h | 21.1 ± 0.5 µM | 41 ± 0.9 µM |  |  |  | KFOD (95% confidence intervals) (physchem; PBS pH 6.8, 37° C.): 0.012 (0.0080-0.016) hr^−1; KFOD (95% confidence intervals) (physchem; PBS, 0.065 mM BSA, 37° C.): 0.18 (0.16-0.20) hr^−1; KFOD (95% confidence intervals) (physchem; PBS, 10 mM NAcLys, 37° C.): 0.30 (0.23-0.38) hr^−1; KFOD (95% confidence intervals) (physchem; PBS, 10 mM Proline, 37° C.): 1.87 (0.62-3.13) hr^−1; half-life at 2.26 mM (physchem; pH 6.8, Half Life): 3.85 h; KFOD ([1]; MEM tissue culture medium, data from Holleran et al.): 5.04 h⁻¹; half-lives in RPM and MEM tissue culture media ([1]; RPM and MEM, Holleran et al.): about 10 minutes; Half Life [1, 4]: 0.172 h; KFOD [1, 4]: 4.02 h⁻¹; half-life in tissue culture media ([1]; tissue culture media, Holleran et al.): 8 to 13 min |
| Wm-N(Me)Hexanoate-BSA conjugate [Example 12] |  |  |  | 0.190 (0.128-0.253) hr^−1 | 0.905 (0.707-1.103) hr^−1 | 0.0148 ± 0.0011 µM |  |
| WmC2O-N(Me)-hexanoate-Bead [Example 16] |  |  |  | 0.308 (0.124-0.492) hr^−1 | 0.148 (0.076-0.220) hr^−1 |  |  |
| WmC20-N(H)-hexanoate-dextran [Example 18] |  |  |  |  |  |  | IC50 (A549 cells; 48 hours treatment): 64.7 ± 1.2 µM; IC50 (HeLa cells): 58 ± 0.6 µM |
| WmC20-N(Me)-hexanoate-IgG [Example 14] |  |  |  | 0.024 (0.013-0.034) hr^−1 | 0.282 (0.166-0.398) hr^−1 | 0.13 µM |  |
| WmC20-N(Me)-hexanoate-dextran [Example 17] |  |  |  |  |  |  | IC50 (A549 cells; 48 hours treatment): 3.96 ± 0.23 µM; IC50 (HeLa cells): 13.3 ± 0.4 µM |
| WmC20-NH-hexanoate-BSA conjugate [Example 13] |  |  |  |  |  | > 1 µM |  |
| WmC20-NH-hexanoate-IgG [Example 15] |  |  |  |  |  | > 1 µM |  |
